One data set has as its system free acidity. The following applies: compared with Omeprazole; cited from earlier work.
Data set [1] is described as follows: Pharmacokinetics in serum after 20 mg/kg oral and intravenous doses. It counts as in vivo, Sprague Dawley rats. The protocol:
As the first step of experiment, an aqueous solution formulation of the compound was administered intravenously to conscious rats via the caudal vein at a dose of 20 mg/kg in a volume of approximately 1.0 ml/kg/rat. Before the experiment, the tail was cleaned with luke warm water and the caudal vein was dilated using xylene. Blood (approx. 1.2 ml) was collected by cardiac puncture under light ether anesthesia at 0.08, 0.25, 0.5, 1, 2, 3, 4, 5, 6, 8, 12, 24 and 48 h post dose. In the second study, conscious rats, fasted overnight, were fed orally at a dose of 20 mg/kg in a volume of 2.0 ml/kg/rat. After drug delivery, blood was collected at the same time points used in the intravenous study. Three rats were utilized for each time point and not more than three or four (later in case of 48 hr) blood samples from each rat, two of which were by intracardiac during the absorption-distribution phase (till 5 hr) and one from the venecava in the terminal phase (6 hr onwards), was withdrawn. Together in two sets of studies, there were 24 rats. (Pl refer to Sampling schedule: Table 1). The total volume of the blood withdrawn within 24 h from cardiac puncture was less than 10% of the total blood volume. Blood was allowed to clot in sealed glass tubes and centrifuged at 2000 rpm. The serum was separated and stored at −60°C until analyses.
Serum concentrations of the compound were determined by HPLC method as described by Srivastava & Gupta (2002) with minor modification. Briefly, to 0.5 ml serum (blank, spiked or test) in 10 ml test tube 1.5 ml of acetonitrile was added and vortex-mixed for 15 sec. The tubes were kept in fridge for 30 min for complete protein precipitation, vortex-mixed for 1 min and centrifuged at 1000 × g for 10 min at 4°C. Supernatant (1.5 ml) was transferred to a 10 ml conical tube without disturbing the lower precipitate pellet and evaporated to dryness in Savant speed vac concentrator. The residue was reconstituted in 0.1 ml of mobile phase, centrifuged at 1000 × g for 10 min and the resulting solution was injected onto the HPLC system.
After oral dose, serum peak concentration (Cmax) and the time to reach peak concentration (Tmax) were derived directly from the original data. The serum concentration-time data from intravenous and oral dosed rats were fitted to WinNonlin programme (version 1.5) to calculate various pharmacokinetic parameters (like AUC, Cl and Vd). The bioavailability for oral dose was calculated using the following equation:
%Bioavailability=AUCoral×Doseiv/AUCiv×Doseoral×100

The conditions of data set [2]: method not specified; cited from earlier work.
[3] abbreviates: Sprague Dawley, serum, rat, 20 mg/kg IV.
Setting [4] is: Sprague Dawley, rat serum, 20 mg/kg oral.

Read-outs that look alike come from different tables or passages of the source.

As usually defined, the Cmax is the peak of the concentration-time curve. The MRT is the average time that molecules of a dose stay in the body. The term bioavailability denotes the share of a dose that reaches the circulation, judged against a reference dose that is usually intravenous. High values mean much systemic uptake, low ones little systemic uptake. The term AUC(0-inf) denotes total exposure, with the tail of the curve extrapolated. By Tmax is commonly meant the time at which the peak concentration occurs. In general, log P refers to a log measure of how a compound divides between an organic and an aqueous phase. Consider `O=C1NC(C(=O)O)/C(=C\Cc2ccccc2)O1` (stereo not drawn) [CDRI-85/92, (5E)-2-oxo-5-(2-phenylethylidene)-1,3-oxazolidine-4-carboxylic acid], for which, in the data set with free acidity, the “% inhibition in the free acidity” value was “fairly compares with that of Omeprazole”. For the same compound, the Cmax in data set [1] (Sprague Dawley, rat, serum, iv, 20 mg/kg, rat serum, 20 mg/kg IV, read-out: Cmax) came out at 4910 ng/mL; in data set [1] (Sprague Dawley, rat, serum, po, 20 mg/kg, rat serum, 20 mg/kg oral, read-out: Cmax) it was 469 ± 45.5 ng/mL; in data set [1] (rat serum, 20 mg/kg oral, 20 mg/kg) it was 469.2 ng/mL. Also, the half-life in data set [1] (Sprague Dawley, rat, serum, iv, 20 mg/kg, rat serum, 20 mg/kg IV, read-out: Elimination t1/2 (converted)) is 2 h. For the same compound, the MRT is 1.1 h in data set [1] (setting [3]) and 3.9 h in data set [1] (Sprague Dawley, serum, rat, 20 mg/kg oral). Further, the Vd in data set [1] (setting [3]) was 3.7 L/kg. Moreover, the clearance in data set [1] (setting [3]) was 18.3 mL/min. The bioavailability in data set [1] (Sprague Dawley, serum, rat, 20 mg/kg oral vs IV, based on AUC) was determined as 70.5%. Besides, the AUC(0-inf) in data set [1] (Sprague Dawley, rat serum, 20 mg/kg IV) was 1250 ng·h/mL; in data set [1] (setting [4]), 882 ng·h/mL. Besides, the Tmax in data set [1] (setting [4]) turned out to be 1 h. Also, the “Elimination t1/2” value in data set [1] (rat serum, 20 mg/kg IV, 20 mg/kg) was determined as 2.1 h. For the same compound, the “Time up to which detected in serum” value in data set [1] (rat, 20 mg/kg IV) was “up to 12 h”. Also, the “MAT (mean absorption time)” value in data set [1] (rat, 20 mg/kg oral, MRToral - MRTIV) is listed as 2.8 h. Besides, the “Earliest time detectable in serum” value in data set [1] (rat, post oral administration 20 mg/kg) turned out to be 5 min. For the same compound, the “log P” value in data set [2] is 0.5.

The values are drawn from article PMC3293351, “Pharmacokinetics and Excretion Studies on CDRI-85/92, an Antiulcer Proton Pump Inhibitor” (Scientia Pharmaceutica, 2011).
